Test results: the supplement of paper PMC12592484

Experiments:
Assay in all cases: drug sensitivity score (DSS2, normalised partial AUC of dose-response, 72 h CellTiter-Glo viability) (DSS (dimensionless)); higher = more sensitive (stronger growth inhibition / cytotoxicity); extreme values may be limits of the assay
[1] = system: 22Rv1
Procedure, shortened: (§1)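 Five doses spanning a 10,000-fold range were pre-dispensed into 384-well plates, into which low-passage primary prostate cancer-associated fibroblasts, PF179T, WPMY-1, LNCaP and 22Rv1 cells were seeded. After 72 h, CellTiter-Glo 2.0 luminescence measured viability, scaled to vehicle and positive-control wells. Higher values of the drug sensitivity score, a BREEZE-computed partial area under the fitted logistic dose–response curve divided by the log of the upper asymptote, mean greater sensitivity.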

[2] = system: CAF#1 (primary prostate cancer-associated fibroblasts of myCAF-like type)
Procedure, shortened: as §1

[3] = system: CAF#2 (primary prostate cancer-associated fibroblasts of iCAF-like type)
Procedure, shortened: as §1

[4] = system: CAF#3 (primary prostate cancer-associated fibroblasts of myCAF-like type)
Procedure, shortened: as §1

[5] = system: CAF#4 (primary prostate cancer-associated fibroblasts of iCAF-like type)
Procedure, shortened: as §1

[6] = system: CAF#5 (primary prostate cancer-associated fibroblasts of myCAF-like type)
Procedure, shortened: as §1

[7] = system: CAF#6 (primary prostate cancer-associated fibroblasts of iCAF-like type)
Procedure, shortened: as §1

[8] = system: CAF#7 (primary prostate cancer-associated fibroblasts of myCAF-like type)
Procedure, shortened: as §1

[9] = system: LNCAP
Procedure, shortened: as §1

[10] = system: PF179T
Procedure, shortened: as §1

[11] = system: WPMY-1
Procedure, shortened: as §1

SMILES | drug sensitivity score [1] | drug sensitivity score [2] | drug sensitivity score [3] | drug sensitivity score [4] | drug sensitivity score [5] | drug sensitivity score [6] | drug sensitivity score [7] | drug sensitivity score [8] | drug sensitivity score [9] | drug sensitivity score [10] | drug sensitivity score [11]
Nc1nc(OCc2cc(Br)cs2)c2[nH]cnc2n1 [Lomeguatrib] (tested concentration range 1-10000 nM) | 0 | 0 | 1.4 | 0.1 | 0.1 | 0.2 | 0 | 0 | 0 | 0 | 0
NC(=O)N1CCC(CC(=O)N2CCC([C@H]3c4ncc(Br)cc4CCc4cc(Cl)cc(Br)c43)CC2)CC1 [Lonafarnib] (tested concentration range 5-50000 nM) | 18.6 | 8.2 | 9.7 | 9.2 | 9 | 7.6 | 8.5 | 7.7 | 16.1 | 3.1 | 16.6
C[C@H]1Oc2cc(cnc2N)-c2c(nn(C)c2C#N)CN(C)C(=O)c2ccc(F)cc21 [Lorlatinib] (tested concentration range 0.1-1000 nM) | 0.3 | 1.9 | 2.2 | 0 | 2.5 | 3.3 | 1.4 | 2.9 | 0 | 0 | 0.4
Cc1c(F)cc(C(=O)NC2CC2)cc1-c1ccc(C(=O)NCC(C)(C)C)cn1 [Losmapimod] (tested concentration range 1-10000 nM) | 0 | 0 | 0 | 0 | 0 | 0 | 0 | 0 | 3.7 | 0 | 0
CC[C@H](C)C(=O)O[C@H]1C[C@@H](C)C=C2C=C[C@H](C)[C@H](CC[C@@H]3C[C@@H](O)CC(=O)O3)[C@H]21 [Lovastatin] (tested concentration range 1-10000 nM) | 1 | 2.8 | 5.5 | 0.3 | 3.4 | 3.7 | 2.6 | 3 | 0 | 3.3 | 1.1
CNC(=O)c1cccc2cc(Oc3ccnc4cc(OCC5(N)CC5)c(OC)cc34)ccc12 [Lucitanib] (tested concentration range 1-10000 nM) | 1.8 | 6 | 5.9 | 6.3 | 7.4 | 3.9 | 6.6 | 13.5 | 3.4 | 5.7 | 2.8
O=C(O)CC[C@H]1CC[C@@](c2cc(F)ccc2F)(S(=O)(=O)c2ccc(Cl)cc2)CC1 [MK-0752] (tested concentration range 0.1-1000 nM) | 0 | 0 | 0 | 0 | 0 | 0 | 0 | 0 | 0 | 0 | 0
NC1(c2ccc(-c3nc4ccn5c(=O)[nH]nc5c4cc3-c3ccccc3)cc2)CCC1 [MK-2206] (tested concentration range 0.1-1000 nM) | 5.8 | 2.7 | 2.6 | 4 | 2 | 3 | 3.2 | 1.8 | 11.1 | 1.8 | 2.4
O=C(c1cccc(Cl)c1F)N1CCN(Cc2cccc(Nc3nccs3)n2)CC1 [MK-8745] (tested concentration range 1-10000 nM) | 4 | 2.6 | 4.3 | 6.8 | 1.1 | 2.8 | 3.4 | 2.6 | 14.7 | 5 | 7.6
O=C(Nc1cccc(NC(=O)c2cccc(O)c2O)c1)c1cccc(O)c1O [MST-312] (tested concentration range 1-10000 nM) | 10.3 | 12.8 | 15.3 | 8.9 | 12.9 | 13.5 | 10.5 | 11.6 | 15.6 | 10.7 | 10.2
CNC(=O)[C@@H](NC(=O)[C@H](CC(C)C)[C@H](O)C(=O)NO)C(C)(C)C [Marimastat] (tested concentration range 1-10000 nM) | 0 | 0 | 0 | 0.6 | 0 | 0 | 0 | 0 | 0 | 0 | 0.4
Cc1ccc(NC(=O)c2ccc(CN3CCN(C)CC3)cc2)cc1Nc1nc(-c2cccnc2)cs1 [Masitinib] (tested concentration range 1-10000 nM) | 5.3 | 4.1 | 5.3 | 0.6 | 7.6 | 3.1 | 1.6 | 1.9 | 4.3 | 2.4 | 5.3
CCN(CC)CCCC(C)Nc1c2ccc(Cl)cc2nc2ccc(OC)cc12 (stereo unspecified) [Mepacrine] (tested concentration range 5-50000 nM) | 17.3 | 9.1 | 14.9 | 11.3 | 14.2 | 13.4 | 9.9 | 12.6 | 19 | 13.7 | 19.6
S=c1[nH]cnc2nc[nH]c12 [Mercaptopurine] (tested concentration range 1-10000 nM) | 2.7 | 0 | 0.1 | 0.1 | 2.8 | 0 | 1.4 | 0.1 | 0.2 | 0 | 9
Cc1ccc(C(=O)Nc2ccc(Oc3cc4cnn(C)c4cc3-c3cn[nH]c3)c(F)c2)c(=O)n1-c1ccc(F)cc1 [Merestinib] (tested concentration range 0.1-1000 nM) | 0 | 3 | 5.6 | 3 | 4.4 | 3.8 | 3.5 | 3.9 | 0 | 5.3 | 4.3
CN(C)C(=N)NC(=N)N [Metformin] (tested concentration range 10-100000 nM) | 0 | 0 | 0 | 0 | 0 | 0 | 0 | 0 | 0 | 0 | 0
CN(Cc1cnc2nc(N)nc(N)c2n1)c1ccc(C(=O)N[C@@H](CCC(=O)O)C(=O)O)cc1 [Methotrexate] (tested concentration range 0.5-5000 nM) | 0 | 0 | 0 | 0 | 1.1 | 0 | 0.8 | 0 | 16.6 | 0 | 17.4
C[C@H]1C[C@@H]2[C@H]([C@@H](O)C[C@@]3(C)[C@H]2CC[C@]3(O)C(=O)CO)[C@@]2(C)C=CC(=O)C=C12 [Methylprednisolone] (tested concentration range 1-10000 nM) | 0 | 0 | 0 | 1.9 | 0 | 0 | 0 | 1.2 | 0 | 0 | 0
CO[C@@H]1[C@H](N(C)C(=O)c2ccccc2)C[C@H]2O[C@]1(C)n1c3ccccc3c3c4c(c5c6ccccc6n2c5c31)C(=O)NC4 [Midostaurin] (tested concentration range 1-10000 nM) | 0 | 18.7 | 20.7 | 12.5 | 16.1 | 16.5 | 18.3 | 19.8 | 4.2 | 18.4 | 11.9
CO[C@@]12[C@H](COC(N)=O)C3=C(C(=O)C(C)=C(N)C3=O)N1C[C@@H]1N[C@@H]12 [Mitomycin C] (tested concentration range 1-10000 nM) | 0 | 0 | 0.1 | 0 | 0 | 0 | 0 | 0 | 0.7 | 0 | 0
Clc1ccc(C(c2ccccc2Cl)C(Cl)Cl)cc1 (stereo unspecified) [Mitotane] (tested concentration range 1-10000 nM) | 0 | 0 | 0 | 0.2 | 0 | 0 | 0 | 0 | 1.8 | 0 | 0
O=C1c2c(O)ccc(O)c2C(=O)c2c(NCCNCCO)ccc(NCCNCCO)c21 [Mitoxantrone] (tested concentration range 0.1-1000 nM) | 10.7 | 3.7 | 8.9 | 1.2 | 5 | 6.6 | 4 | 7.2 | 14.7 | 9.9 | 15
CCS(=O)(=O)Nc1ccc(Oc2ccc(F)cc2F)c(-c2cn(C)c(=O)c3[nH]ccc23)c1 [Mivebresib] (tested concentration range 1-10000 nM) | 23.5 | 19 | 19.7 | 19.3 | 10.7 | 15.5 | 13.3 | 11.4 | 30.7 | 11.1 | 22.9
Nc1ccccc1NC(=O)c1ccc(CNc2nccc(-c3cccnc3)n2)cc1 [Mocetinostat] (tested concentration range 1-10000 nM) | 14.1 | 9.4 | 11.3 | 9.2 | 8.4 | 11.8 | 7.7 | 9.4 | 13.3 | 13.5 | 12
CCNC(=O)C[C@@H]1N=C(c2ccc(Cl)cc2)c2cc(OC)ccc2-n2c(C)nnc21 [Molibresib] (tested concentration range 1-10000 nM) | 8.9 | 4.6 | 5.1 | 6.6 | 3.8 | 2.9 | 2.9 | 2.7 | 12.3 | 2.9 | 6.5
N#CCNC(=O)c1ccc(-c2ccnc(Nc3ccc(N4CCOCC4)cc3)n2)cc1 [Momelotinib] (tested concentration range 1-10000 nM) | 0.9 | 3.9 | 4.6 | 4.4 | 2.8 | 4.1 | 2.8 | 3.1 | 5 | 2.3 | 6.1
